Assay: Safety and tolerability (TEAEs, PCSAs, laboratory tests) in phase 1 study Parts 1a, 1b, 2
Type: in vivo, healthy adult participants (human)
Description: This single ascending dose (SAD) study consisted of three parts: Part 1a, which is a phase 1, randomized, placebo-controlled, double-blind, sequential ascending single dose study; Part 1b, which is phase 1, open-label, sequential single dose study; and Part 2, which is an ascending 14-day repeated oral dose study.
Part 1a evaluated 4 sequential ascending dose levels of Compound 1 under fasted conditions: 10 mg, 20 mg, 30 mg, and 40 mg, each dose per cohort. Participants were fasted overnight for at least 8 hours before the morning dose and 2 hours after dosing.
Part 1b is an open-label study with two single dose levels of Compound 1, previously tested for safety/tolerability in SAD cohorts of Part 1a, were selected (10 mg and 40 mg) and sequentially administered under a fed condition, each dose per cohort. Participants were fasted overnight for at least 8 hours, and then fed with a light breakfast approximately 30 minutes before Compound 1 dosing. In both Part 1a and 1b, all participants received one single dose of treatment.
Part 2 was a randomized, double-blind, placebo-controlled study that evaluated 14-day multiple ascending oral doses of Compound 1 once daily (OD) or twice daily (BID) regimen under fasted conditions: 10 mg QD, 20 mg QD, 15 mg BID, and 20 mg BID. Participants fasted overnight for at least 8 hours before the morning dose and 2 hours after dosing on Day 1 and Day 14. All other morning doses were administered after an overnight fast and approximately 30 minutes before a breakfast snack. Sentinel dosing approach was followed where two of ten participants in each cohort were dosed the first day (n=1, Compound; n=1, placebo) in advance of the full cohort. The remaining 8 participants from each cohort were randomized to receive either Compound or placebo (randomized 7:1) on the following days with at least 48-hour interval from dosing of the sentinel participants, allowing a safety evaluation at the predicted steady state.
Safety and tolerability were assessed by physical examination, neurological examination, monitoring adverse events (AEs) and potentially clinically significant abnormalities (PCSAs) in clinical laboratory tests (hematology, clinical chemistry, and urinalysis), vital signs (body temperature, blood pressure and heart rate), and ECG parameters (heart rate, RR, PR, QRS, QT, QTcF, QTcB intervals) measured in the standard 12-lead ECG or ECGs extracted from 24-hour Holter ECG data.
Safety population included all participants who received at least one dose of study intervention (Compound 1 or placebo). All safety assessments (AEs, laboratory parameters, vital signs) were based on the review of individual values and were summarized using descriptive statistics. Safety analysis was focused on treatment-emergent period, defined as the time from the first investigational medicinal product (IMP) administration up to the end of study visit (included). AEs were coded according to the Medical Dictionary for Regulatory Activities (MedDRA, version 23.1 in Part 1a and Part 1b; version 24 in Part 2). Severity was graded from Grade 1 to 4 according to the Food and Drug Administration (FDA) Guidance for Industry. Number (%) of participants experiencing TEAEs and potentially clinically significant abnormality (PCSAs) in clinical chemistry, vital signs, and ECGs were summarized by dose level group.

In the case of `CC(C)(C(=O)N1CCOc2c(C#N)cncc2C1)C(F)F` [Compound 1, 4-(3,3-difluoro-2,2-dimethyl-propanoyl)-3,5-dihydro-2H-pyrido[3,4-f] [1,4]oxazepine-9-carbonitrile], the “Any Grade ≥3 TEAE, participants” value (Part 1a single 10 mg fasted) is reported as 0 n, the “Any TEAE, participants” value (Part 1a single 10 mg fasted) is reported as 2 n and the “Any treatment-emergent AESI, participants” value (shortened to “Any treatment-emergent AESI”) (Part 1a single 10 mg fasted) is reported as 0 n. The “Any treatment-emergent SAE, participants” value (Part 1a single 10 mg fasted) was 0 n, the “TEAE Blood creatine phosphokinase increased, participants” value (Part 1a single 10 mg fasted) was 0 n and the “TEAE Cardiac disorders, participants” value (Part 1a single 10 mg fasted) was 1 n. For the same molecule, the “TEAE Dermatitis contact, participants” value (Part 1a single 10 mg fasted) was 1 n, the “TEAE Dizziness, participants” value (Part 1a single 10 mg fasted) was 0 n and the “TEAE Eye disorders, participants” value (Part 1a single 10 mg fasted) was 0 n. The “TEAE Fatigue, participants” value (Part 1a single 10 mg fasted) was 0 n, the “TEAE General disorders and administration site conditions, participants” value (Part 1a single 10 mg fasted) was 0 n and the “TEAE Headache, participants” value (Part 1a single 10 mg fasted) was 0 n. For the same molecule, the “TEAE Investigations, participants” value (Part 1a single 10 mg fasted) was 0 n, the “TEAE Keratitis, participants” value (Part 1a single 10 mg fasted) was 0 n and the “TEAE Medical device site dermatitis, participants” value (Part 1a single 10 mg fasted) was 0 n. For the same molecule, the “TEAE Musculoskeletal and connective tissue disorders, participants” value (Part 1a single 10 mg fasted) was 0 n, the “TEAE Myalgia, participants” value (Part 1a single 10 mg fasted) was 0 n and the “TEAE Nervous system disorders, participants” value (from here on “TEAE Nervous system disorders”) (Part 1a single 10 mg fasted) was 0 n. The “TEAE Presyncope, participants” value (Part 1a single 10 mg fasted) was 0 n, the “TEAE Skin and subcutaneous tissue disorders, participants” value (Part 1a single 10 mg fasted) was 1 n and the “TEAE Skin irritation, participants” value (Part 1a single 10 mg fasted) was 0 n. The “TEAE Tachycardia, participants” value (Part 1a single 10 mg fasted) was 0 n, the “TEAE Thrombophlebitis, participants” value (Part 1a single 10 mg fasted) was 0 n and the “TEAE Vascular disorders, participants” value (Part 1a single 10 mg fasted) was 0 n. For the same molecule, the “TEAE Ventricular extrasystoles, participants” value (from here on “TEAE Ventricular extrasystoles”) (Part 1a single 10 mg fasted) was 1 n, the “TEAE Vessel puncture site hypoaesthesia, participants” value (Part 1a single 10 mg fasted) was 0 n and the “TEAE Vessel puncture site pain, participants” value (shortened to “TEAE Vessel puncture site pain”) (Part 1a single 10 mg fasted) was 0 n. For the same molecule, the “Any Grade ≥3 TEAE, participants” value (Part 1a single 20 mg fasted) was 0 n, the “Any TEAE, participants” value (Part 1a single 20 mg fasted) was 1 n and the “Any treatment-emergent AESI” value (Part 1a single 20 mg fasted) was 0 n. For the same molecule, the “Any treatment-emergent SAE, participants” value (Part 1a single 20 mg fasted) was 0 n, the “TEAE Blood creatine phosphokinase increased, participants” value (Part 1a single 20 mg fasted) was 0 n and the “TEAE Cardiac disorders, participants” value (Part 1a single 20 mg fasted) was 1 n. The “TEAE Dermatitis contact, participants” value (Part 1a single 20 mg fasted) was 0 n, the “TEAE Dizziness, participants” value (Part 1a single 20 mg fasted) was 0 n and the “TEAE Eye disorders, participants” value (Part 1a single 20 mg fasted) was 0 n. The “TEAE Fatigue, participants” value (Part 1a single 20 mg fasted) was 0 n, the “TEAE General disorders and administration site conditions, participants” value (Part 1a single 20 mg fasted) was 0 n and the “TEAE Headache, participants” value (Part 1a single 20 mg fasted) was 1 n. For the same molecule, the “TEAE Investigations, participants” value (Part 1a single 20 mg fasted) was 0 n, the “TEAE Keratitis, participants” value (Part 1a single 20 mg fasted) was 0 n and the “TEAE Medical device site dermatitis, participants” value (Part 1a single 20 mg fasted) was 0 n. For the same molecule, the “TEAE Musculoskeletal and connective tissue disorders, participants” value (Part 1a single 20 mg fasted) was 0 n, the “TEAE Myalgia, participants” value (Part 1a single 20 mg fasted) was 0 n and the “TEAE Nervous system disorders” value (Part 1a single 20 mg fasted) was 1 n. For the same molecule, the “TEAE Presyncope, participants” value (Part 1a single 20 mg fasted) was 0 n, the “TEAE Skin and subcutaneous tissue disorders, participants” value (Part 1a single 20 mg fasted) was 0 n and the “TEAE Skin irritation, participants” value (Part 1a single 20 mg fasted) was 0 n. For the same molecule, the “TEAE Tachycardia, participants” value (Part 1a single 20 mg fasted) was 1 n, the “TEAE Thrombophlebitis, participants” value (Part 1a single 20 mg fasted) was 0 n and the “TEAE Vascular disorders, participants” value (Part 1a single 20 mg fasted) was 0 n. For the same molecule, the “TEAE Ventricular extrasystoles” value (Part 1a single 20 mg fasted) was 0 n, the “TEAE Vessel puncture site hypoaesthesia, participants” value (Part 1a single 20 mg fasted) was 0 n and the “TEAE Vessel puncture site pain” value (Part 1a single 20 mg fasted) was 0 n. The “Any Grade ≥3 TEAE, participants” value (Part 1a single 30 mg fasted) was 0 n, the “Any TEAE, participants” value (Part 1a single 30 mg fasted) was 3 n and the “Any treatment-emergent AESI” value (Part 1a single 30 mg fasted) was 0 n. The “Any treatment-emergent SAE, participants” value (Part 1a single 30 mg fasted) was 0 n, the “Dizziness, events” value (Part 1a single 30 mg fasted) was 3 events and the “TEAE Blood creatine phosphokinase increased, participants” value (Part 1a single 30 mg fasted) was 0 n. The “TEAE Cardiac disorders, participants” value (Part 1a single 30 mg fasted) was 0 n, the “TEAE Dermatitis contact, participants” value (Part 1a single 30 mg fasted) was 1 n and the “TEAE Dizziness, participants” value (Part 1a single 30 mg fasted) was 2 n. The “TEAE Eye disorders, participants” value (Part 1a single 30 mg fasted) was 1 n, the “TEAE Fatigue, participants” value (Part 1a single 30 mg fasted) was 1 n and the “TEAE General disorders and administration site conditions, participants” value (Part 1a single 30 mg fasted) was 1 n. For the same molecule, the “TEAE Headache, participants” value (Part 1a single 30 mg fasted) was 0 n, the “TEAE Investigations, participants” value (Part 1a single 30 mg fasted) was 0 n and the “TEAE Keratitis, participants” value (Part 1a single 30 mg fasted) was 1 n. The “TEAE Medical device site dermatitis, participants” value (Part 1a single 30 mg fasted) was 0 n, the “TEAE Musculoskeletal and connective tissue disorders, participants” value (Part 1a single 30 mg fasted) was 0 n and the “TEAE Myalgia, participants” value (Part 1a single 30 mg fasted) was 0 n. For the same molecule, the “TEAE Nervous system disorders” value (Part 1a single 30 mg fasted) was 2 n, the “TEAE Presyncope, participants” value (Part 1a single 30 mg fasted) was 0 n and the “TEAE Skin and subcutaneous tissue disorders, participants” value (Part 1a single 30 mg fasted) was 1 n. The “TEAE Skin irritation, participants” value (Part 1a single 30 mg fasted) was 0 n, the “TEAE Tachycardia, participants” value (Part 1a single 30 mg fasted) was 0 n and the “TEAE Thrombophlebitis, participants” value (Part 1a single 30 mg fasted) was 1 n. For the same molecule, the “TEAE Vascular disorders, participants” value (Part 1a single 30 mg fasted) was 1 n, the “TEAE Ventricular extrasystoles” value (Part 1a single 30 mg fasted) was 0 n and the “TEAE Vessel puncture site hypoaesthesia, participants” value (Part 1a single 30 mg fasted) was 0 n. For the same molecule, the “TEAE Vessel puncture site pain” value (Part 1a single 30 mg fasted) was 0 n, the “Any Grade ≥3 TEAE, participants” value (Part 1a single 40 mg fasted) was 0 n and the “Any TEAE, participants” value (Part 1a single 40 mg fasted) was 3 n. For the same molecule, the “Any treatment-emergent AESI” value (Part 1a single 40 mg fasted) was 0 n, the “Any treatment-emergent SAE, participants” value (Part 1a single 40 mg fasted) was 0 n and the “Dizziness, events” value (Part 1a single 40 mg fasted) was 1 event. The “TEAE Blood creatine phosphokinase increased, participants” value (Part 1a single 40 mg fasted) was 0 n, the “TEAE Cardiac disorders, participants” value (Part 1a single 40 mg fasted) was 1 n and the “TEAE Dermatitis contact, participants” value (Part 1a single 40 mg fasted) was 1 n. The “TEAE Dizziness, participants” value (Part 1a single 40 mg fasted) was 1 n.

From patent US20240100065A1, “METHODS FOR TREATING RECEPTOR-INTERACTING PROTEIN KINASE 1-MEDIATED DISEASES” (Genzyme Corporation, priority 2022, published 2024)
